From patent US9504676B2, “Molecules inhibiting a metabolic pathway involving the Syk protein tyrosine kinase and method for identifying said molecules” (CENTRE NATIONAL DE LA RECHERCHE SCIENTIFIQUE, priority 2008, dated 2016) come the findings set out here.

In brackets after ≈: the same amount, converted by molar mass.

Test [1] concerns the target T1, murine Syk tyrosine kinase protein (GST:Syk 6-242) (Mus musculus, UniProt P48025).
T1 construct: made in house
As to the kind of experiment: ADA method: displacement of the binding of scFv G4G11 with Syk (ELISA). The note with it: small molecules at 10 μM, scFv G4G11 100 nM; read-out: In vit. inhib.: mean inhibition % of the binding of scFv G4G11 with Syk in the ADA method. In a few lines: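 GST:Syk 6-242 (murine) was immobilised at 10 μg ml^−1 and pre-incubated 1 h at ambient temperature with compounds at 10 μM final in PBS. scFv G4G11 was then added at 100 nM for 1 h. Bound scFv was detected via its C-terminal c-myc tag with HRP-9E10, and % inhibition was taken from signals with versus without compound.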
(ELISA stands for enzyme-linked immunosorbent assay.)

Test [2] concerns RBL-2H3 cells. The test is described as follows: cells. The test is classed as cell-based, rat. The note with it: Rattus norvegicus; RBL-2H3 cells; read-out: Degran. IC50: concentration inhibiting mast cell degranulation by 50%. In a few lines:
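RBL-2H3 rat basophils sensitized 12-16 h with anti-DNP IgE (0.5 μg/ml), pretreated 90 min at 37° C with compound (DMF 0.25% vehicle), then stimulated 45 min with DNP-BSA (50 ng ml^−1) or ionomycin (1.5 μM). Degranulation read as β-hexosaminidase release.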

One may read the inhibition as the percentage by which the read-out fell short of the control. Consider `COc1cccc(C2C(C(=O)c3cc(C)ccc3C)=C(O)C(=O)N2CCCN2CCOCC2)c1OC` (stereo not shown) [Molecule 56, 5-(2,3-dimethoxyphenyl)-4-(2,5-dimethylbenzoyl)-3-hydroxy-1-[3-(4-morpholinyl)propyl]-1,5-dihydro-2H-pyrrol-2-one], for which the inhibition at 10 µM in test [1] was found to be 42%. For the same molecule, in test [2], the IC50 is about 10 µg/mL (≈ 20.2 µM).
In the same order, the values of `N#CC1=C(N)Oc2[nH]nc(-c3ccccc3)c2C1c1cccc(OC(=O)c2ccco2)c1` (stereo not shown) [Molecule 57, 3-(6-amino-5-cyano-3-phenyl-1,4-dihydropyrano[2,3-c]pyrazol-4-yl)phenyl 2-furoate] are 42% and over 10 µg/mL.
In the same order, the values of `Cc1cc(C)c(OCC(=O)N2CCN(C(=O)COc3c(C)cc(C)cc3C)CC2)c(C)c1` [Molecule 58, 1,4-bis [(mesityloxy)acetyl] piperazine] are 40% and about 10 µg/mL (≈ 22.8 µM).
Regarding `CCOC(=O)c1c(-c2ccccc2)oc2ccc(OC(C(=O)O)c3ccccc3)cc12` (stereo not shown) [Molecule 60, {[3-(ethoxy carbonyl)-2-phenyl-1-benzofuran-5-yl]oxy} (phenyl) acetic acid], in test [1], the inhibition at 10 µM amounted to 40%. In addition, the IC50 in test [2] is over 10 µg/mL.
For the molecule `O=C1c2ccc(Oc3ccc4c(c3)C(=O)N(CC3CCCO3)C4=O)cc2C(=O)N1CC1CCCO1` (stereo not shown) [Molecule 62, 5,5′-oxybis [2-(tetrahydro-2-furanyl methyl)-1H-isoindole-1,3(2H)-dione]], the inhibition at 10 µM in test [1] worked out at 38.5%. In addition, the IC50 in test [2] was over 10 µg/mL.
In the same order, the values of `CSc1nnc2c(n1)OC(c1cccc(OCc3ccccc3)c1)N(C(C)=O)c1ccccc1-2` (stereo not shown) [Molecule 63, 7-acetyl-6-[3-(benzyloxy)phenyl]-3-(methylthio)-6,7-dihydro [1,2,4] triazino[5,6-d][3,1] benzoxazepine] are 38.5% and about 5 µg/mL (≈ 10.6 µM).
In the case of `COc1cccc2cc(C(=O)C3=C(O)C(=O)N(CCCn4ccnc4)C3c3ccccn3)oc12` (stereo not shown) [Molecule 64], in test [1], the inhibition at 10 µM worked out at 37.5%. In test [2], the IC50 was over 10 µg/mL.
As to `CN(C)S(=O)(=O)c1ccc(C(=O)C2=C(O)C(=O)N(CCCN3CCOCC3)C2c2cccnc2)cc1` (stereo not shown) [Molecule 65, 4-{[4-hydroxy-1-[3-(4-morpholinyl)propyl]-5-oxo-2-(3-pyridinyl)-2,5-dihydro-1H-pyrrol-3-yl]carbonyl}-N,N-dimethylbenzenesulphonamide], in test [1], the inhibition at 10 µM was found to be 37%. Also, the IC50 in test [2] is over 10 µg/mL.
The like results for `Cc1ccc(-c2nnc(Nc3cccc(O)c3)c3ccccc23)cc1S(=O)(=O)NC(C)(C)CO` [Molecule 67, N-(2-hydroxy-1,1-dimethylethyl)-5-{4-[(3-hydroxyphenyl)amino]-1-phthalazinyl}-2-methylbenzenesulphonamide] were, in that order, 32% and over 10 µg/mL.
In the case of `O=C(C1=C(O)C(=O)N(CCCN2CCOCC2)C1c1ccccc1F)c1ccc2c(c1)OCO2` (stereo not shown) [Molecule 68, 4-(1,3-benzodioxol-5-ylcarbonyl)-5-(2-fluorophenyl)-3-hydroxy-1-[3-(4-morpholinyl)propyl]-1,5-dihydro-2H-pyrrol-2-one], the inhibition at 10 µM in test [1] was 30%. The IC50 in test [2] is about 10 µg/mL (≈ 21.3 µM).
Turning to `COc1ccc(NC(=O)CSc2nc3ccccc3c(=O)n2Cc2ccco2)c(OC)c1` [Molecule 69], the inhibition at 10 µM in test [1] was determined as 30%. In addition, the IC50 in test [2] is about 5 µg/mL (≈ 11.1 µM).
The like results for `COc1cccc(C(=O)N(Cc2cc3ccc(C)cc3nc2C)c2ccccc2OC)c1` [Molecule 70] were, in that order, 30% and over 10 µg/mL.
In the same order, the values of `COc1cccc(C2C(C(=O)c3ccc(Cl)cc3)=C(O)C(=O)N2CCN2CCOCC2)c1` (stereo not shown) [Molecule 71, 4-(4-chlorobenzoyl)-3-hydroxy-5-(3-methoxyphenyl)-1-[2-(4-morpholinyl)ethyl]-1,5-dihydro-2H-pyrrol-2-one] are 29% and over 10 µg/mL.
The like results for `COc1ccc(OCC(=O)NCc2cc(-c3nn(C)c(=O)c4ccccc34)ccc2C)cc1` [Molecule 72, 2-(4-methoxyphenoxy)-N-[2-methyl-5-(3-methyl-4-oxo-3,4-dihydro-1-phthalazinyl)benzyl]acetamide] were, in that order, 28% and about 10 µg/mL (≈ 22.5 µM).
`COc1ccc(C2(CNC(=O)c3ccc(NC(=O)c4ccco4)cc3)CCOCC2)cc1` [Molecule 73, N-{4-[({[4-(4-methoxyphenyl)tetrahydro-2H-pyran-4-yl]methyl}amino)carbonyl]phenyl}-2-furamide]: in test [1], the inhibition at 10 µM came to 28%. In addition, the IC50 in test [2] was over 10 µg/mL.
`COc1cccc(C2C(C(=O)c3ccccc3)=C(O)C(=O)N2CCCN2CCOCC2)c1OC` (stereo not shown) [Molecule 74, 4-benzoyl-5-(2,3-dimethoxyphenyl)-3-hydroxy-1-(3-(4-morpholinyl)propyl]-1,5-dihydro-2H-pyrrol-2-one]: the inhibition at 10 µM in test [1] was 27.5%. Further, the IC50 in test [2] is over 10 µg/mL.
The like results for `O=C(Nc1cccc2ccccc12)OCCn1nnnc1C1(N2CCOCC2)CCCCC1` [Molecule 76, 2-{5-[1-(4-morpholinyl)cyclohexyl]-1H-tetrazol-1-yl}ethyl 1-naphthylcarbamate] were, in that order, 27% and over 10 µg/mL.
The like results for `COC(=O)c1ccc(NC(=O)CC2C(=O)N(c3ccccc3)C(=O)N2Cc2ccc3c(c2)OCO3)cc1` (stereo not shown) [Molecule 77, methyl 4-({[3-(1,3-benzodioxol-5-ylmethyl)-2,5-dioxo-1-phenyl-4-imidazolidinyl]acetyl}amino)benzoate] were, in that order, 26% and over 10 µg/mL.
With `O=C(Nc1ccccc1C(=O)N1CCCC1)c1ccc(CN2CCc3ccccc3C2)cc1` [Molecule 78, 4-(3,4-dihydro-2(1H)-isoquinolinyl-methyl)-N-[2-(1-pyrrolidinylcarbonyl)phenyl]benzamide], in test [1], the inhibition at 10 µM was determined as 25%. For the same molecule, the IC50 in test [2] was over 10 µg/mL.
With `CCN1C2=C(C(=O)CCC2)C(c2ccc(OCc3ccc(C)cc3)c(Cl)c2)C2=C1CCCC2=O` [Molecule 79], the inhibition at 10 µM in test [1] is 25%. For the same molecule, the IC50 in test [2] was over 10 µg/mL.
In the same order, the values of `CCOC(=O)C1CCN(C(=O)c2ccc(CN(c3ccc(C)c(C)c3)S(C)(=O)=O)cc2)CC1` [Molecule 80, ethyl 1-(4-{[(3,4-dimethylphenyl) (methyl sulphonyl)amino]methyl}benzoyl)-4-piperidine carboxylate] are 24.5% and over 10 µg/mL.
The like results for `COC(=O)c1ccc(NC(=O)CN(c2cccc(OC)c2)S(=O)(=O)c2ccccc2)cc1` [Molecule 81] were, in that order, 20% and over 10 µg/mL.
In the case of `O=C(C1=C(O)C(=O)N(CCCN2CCOCC2)C1c1ccncc1)c1ccc2c(c1)OCCO2` (stereo not shown) [Molecule 83, 4-(2,3-dihydro-1,4-benzodioxin-6-ylcarbonyl)-3-hydroxy-1-[3-(4-morpholinyl)propyl]-5-(4-pyridinyl)-1,5-dihydro-2H-pyrrol-2-one], in test [1], the inhibition at 10 µM came to 19%. Further, the IC50 in test [2] was about 10 µg/mL (≈ 21.5 µM).
The like results for `COc1cccc2cc(C(=O)C3=C(O)C(=O)N(CCN4CCOCC4)C3c3cccc(Br)c3)oc12` (stereo not shown) [Molecule 85, 5-(3-bromophenyl)-3-hydroxy-4-[(7-methoxy-1-benzofuran-2-yl)carbonyl]-1-[2-(4-morpholinyl)ethyl]-1,5-dihydro-2H-pyrrol-2-one] were, in that order, 18% and about 10 µg/mL (≈ 18.5 µM).
The like results for `CCN(CC)CCCN1C(=O)C(O)=C(C(=O)c2cc3cccc(OC)c3o2)C1c1ccccn1` (stereo not shown) [Molecule 86, 1-[3-(diethylamino)propyl]-3-hydroxy-4-[(7-methoxy-1-benzofuran-2-yl)carbonyl]-5-(2-pyridinyl)-1,5-dihydro-2H-pyrrol-2-one] were, in that order, 17% and about 10 µg/mL (≈ 21.6 µM).
For the molecule `Cc1ccc(-c2nnc(N3CCN(C(=O)CSc4nc(C)cc(C)n4)CC3)c3ccccc23)cc1` [Molecule 87, 1-(4-{[(4,6-dimethyl-2-pyrimidinyl)thio]acetyl}-1-piperazinyl)-4-(4-methylphenyl) phthalazine], the inhibition at 10 µM in test [1] is 11%. The IC50 in test [2] is about 5 µg/mL (≈ 10.3 µM).
